Experimental data from US20250275953A1, “VODOBATINIB FOR REDUCING PROGRESSION OF PARKINSON'S DISEASE” (Sun Pharma Advanced Research Company Ltd., priority 2022, published 2025).
pIC50: −log10 of the molar value. Like-named read-outs stand apart in the source and are kept apart here.

Tests used:
[1] = target: Abl (E255K) (Homo sapiens, UniProt P00519, E255K); assay: Biochemical kinase assay, mutant Abl
Source text: (§1) Conventional biochemical kinase assays, using radioactivity and fluorescence as readouts, were used to derive half maximal-inhibitory concentrations (IC50) values.

[2] = target: Abl (F317I) (Homo sapiens, UniProt P00519, F317I); assay: Biochemical kinase assay, mutant Abl
Source text: as §1

[3] = target: Abl (F317L) (Homo sapiens, UniProt P00519, F317L); assay: Biochemical kinase assay, mutant Abl
Source text: as §1

[4] = target: Abl (H396P) (Homo sapiens, UniProt P00519, H396P); assay: Biochemical kinase assay, mutant Abl
Source text: as §1

[5] = CSF pharmacokinetics on Day 7, healthy volunteers; assay type: in vivo, human; settings: for CSF AUC0-24 AM / CSF AUC0-24 GM / CSF AUC0-24 Median / CSF Cmax AM / CSF Cmax GM / CSF Cmax Median / Tmax: Day 7, CSF, healthy volunteers; for Cmax, CSF/IC50: IC50 0.9 nM; for Tmax: male, human, CSF, oral
Procedure: CSF Assessment: On the morning of Day 7, local anesthetic (e.g., lidocaine 2% with epinephrine) was administered subcutaneously at the site of lumbar puncture. An indwelling intrathecal catheter was inserted at the lumbar region (L3-L5) by a trained and experienced anesthesiologist (i.e., using an epidural tray, 17G or 20/22G Tuohy needle and catheter over needle system). A CSF sample was collected for safety labs (i.e., cell count, glucose, protein). Serial CSF samples were then collected through the spinal catheter and tubing connected to a fractional collection system (i.e., peristaltic pump). The CSF samples (8 mL) were collected at a flow rate of 0.5 mL/min over a 16-minute period at pre-dose, and at 0.5 h, 1.0 h, 1.5 h, 2 h, 2.5 h, 3 h, 4 h, 6 h, 8 h, 12 h and 24 h post-dose. The first 2 mL of CSF was discarded, and the 6 mL remainder was used for the PK study.
The plasma and CSF samples were analyzed, by validated LC/MS-MS methods. PK analysis was conducted based on PK/PP Population: Cmax, AUC0-t, AUC0-24, AUC0-∞, Tmax, Cavg, CL/F, Cmin, t1/2, Kel, Vd (V/F; Vd/F), and Vss/F. Model-independent plasma PK parameters (Cmax, Tmax, t1/2, AUC0-t, AUC0-24, AUC0-∞, Cavg, CL/F, Vss/F, Vd/F), after the first dose (Day 1) and last dose (Day 7), Cmin on Days 2-7) was listed by subject and summarized by study cohort. In addition to the descriptive statistics listed above, geometric means was reported for the pivotal PK endpoints (CL/F, Vss/F, Vd/F, Cmin, Cavg, AUC0-t, AUC0-24, AUC0-∞, and Cmax). For CSF, PK parameters (Cmax, Tmax, t1/2, AUC0-t, AUC0-24, Cmin, Cavg, CL/F, Vss/F) was listed by subject and summarized by cohort. Ratios of CSF: plasma concentration at each time point was listed by subject and summarized by study cohort.
Forty-one healthy adult male volunteers aged 18 to 45 with body mass indexes (BMI)≥18 to ≤30 Kg/m^2 and total body weight >50 kg (110 lb) were screened in order to enroll 19 subjects with an average age of 34.2 years (range 21.5-45.6 years) into this study Six participants were randomly assigned to the 48 and 192 mg cohorts, and seven participants were assigned to the 384 mg cohort. After an overnight fast, participants received once daily doses of vodobatinib as capsules for 7 days. Serial PK blood samples to measure vodobatinib plasma concentrations were collected at pre-dose and at 0.25, 0.5, 1, 1.5, 2, 2.5, 3, 4, 6, 8, 12, 16 and 24 h post-dose after the first dose on Day 1 and the last dose on day 7. Additional PK samples prior to the morning doses were taken on Days 3-6. On the morning of Day 7, prior to dosing, an indwelling intrathecal catheter was inserted in the lumbar region (L3-L5). Serial CSF samples were collected through the catheter connected via peristaltic pump to a fraction collector. At each designated CSF collection time point, 8 mL of CSF was collected at a flow rate of 0.5 mL/min over a 16-min period at pre-dose, and 0.5, 1.0, 1.5, 2, 2.5, 3, 4, 6, 8, 12 and 24 h post-dose. The first 2 mL of CSF was discarded, and the remaining 6 mL was used for the vodobatinib assay. The occurrence of treatment-emergent adverse events (TEAEs) and serious AEs (SAEs) reported through the completion of study were collected. Clinical laboratory parameters, vital signs and physical examination data and electrocardiogram (ECG) were collected and evaluated relative to baseline values.

[6] = 48 mg, Day 7, Healthy Volunteers
[7] = 192 mg, Day 7, Healthy Volunteers
[8] = 384 mg, Day 7, Healthy Volunteers

Cc1ccc(C(=O)NNC(=O)c2c(C)cccc2Cl)cc1C#Cc1cnc2ccccc2c1 [N′-(2-chloro-6-methylbenzoyl)-4-methyl-3-[2-(3-quinolyl)ethynyl]-benzohydrazide]
inhibition [1]: potently inhibit | inhibition [2]: potently inhibit | inhibition [3]: potently inhibit | pIC50 [4]: 9.30 | CSF AUC0-24 ([5]; 48 mg, Day 7): 0.0183 µM·h | CSF AUC0-24 AM ([5]; 48 mg): 10.0 ng·h/mL | CSF AUC0-24 GM ([5]; 48 mg): 8.9 ng·h/mL | CSF AUC0-24 Median ([5]; 48 mg): 10.1 ng·h/mL | CSF Cmax AM ([5]; 48 mg): 0.8 ng/mL | CSF Cmax GM ([5]; 48 mg): 0.7 ng/mL | CSF Cmax Median ([5]; 48 mg): 0.8 ng/mL | CSF AUC0-24 [5, 6]: 10.0 ng·h/mL | Cavg, CSF [5, 6]: (0.9 nM) | Cmax, CSF [5, 6]: (1.8 nM) | Cmax, CSF ([5]; 48 mg, Day 7, Healthy Volunteers, Table 11A): 0.8 ng/mL | Cmax, CSF/IC50 [5, 6]: 2.0 | Cavg, CSF ([5]; 48 mg, Day 7, Healthy Volunteers, estimated as AUC(0-24)/24): 0.42 ng/mL | CSF concentrations at 2-3 h ([5]; 48 mg, healthy subjects): 0.5 to 0.7 ng/mL | CSF AUC0-24 ([5]; 192 mg, Day 7): 0.1304 µM·h | CSF AUC0-24 AM ([5]; 192 mg): 74.5 ng·h/mL | CSF AUC0-24 GM ([5]; 192 mg): 59.2 ng·h/mL | CSF AUC0-24 Median ([5]; 192 mg): 64.5 ng·h/mL | CSF Cmax AM ([5]; 192 mg): 5.2 ng/mL | CSF Cmax GM ([5]; 192 mg): 4.6 ng/mL | CSF Cmax Median ([5]; 192 mg): 5.2 ng/mL | CSF AUC0-24 [5, 7]: 74.5 ng·h/mL | Cavg, CSF [5, 7]: (6.8 nM) | Cmax, CSF [5, 7]: (11.5 nM) | Cmax, CSF ([5]; 192 mg, Day 7, Healthy Volunteers, Table 11A): 5.2 ng/mL | Cmax, CSF/IC50 [5, 7]: 13 | Cavg, CSF ([5]; 192 mg, Day 7, Healthy Volunteers, estimated as AUC(0-24)/24): 3.3 ng/mL | CSF AUC0-24 ([5]; 384 mg, Day 7): 0.1201 µM·h | CSF AUC0-24 AM ([5]; 384 mg): 58.7 ng·h/mL | CSF AUC0-24 GM ([5]; 384 mg): 54.5 ng·h/mL | CSF AUC0-24 Median ([5]; 384 mg): 60.0 ng·h/mL | CSF Cmax AM ([5]; 384 mg): 5.5 ng/mL | CSF Cmax GM ([5]; 384 mg): 5.4 ng/mL | CSF Cmax Median ([5]; 384 mg): 5.1 ng/mL | CSF AUC0-24 [5, 8]: 58.7 ng·h/mL | Cavg, CSF [5, 8]: (5.3 nM) | Cmax, CSF [5, 8]: (12.3 nM) | Cmax, CSF ([5]; 384 mg, Day 7, Healthy Volunteers, Table 11A): 5.5 ng/mL | Cmax, CSF/IC50 [5, 8]: 14 | Cavg, CSF ([5]; 384 mg, Day 7, Healthy Volunteers, estimated as AUC(0-24)/24): 2.4 ng/mL | quantifiable CSF concentrations ([5]; Day 7, 3 dose cohorts): observed in all subjects | Tmax ([5]; 48 mg, read-out: CSF Tmax Median): 3 h | Tmax ([5]; 48 mg, read-out: CSF Tmax Min, Max): 3 to 6.02 h | Tmax ([5]; 192 mg, read-out: CSF Tmax Median): 6 h | Tmax ([5]; 192 mg, read-out: CSF Tmax Min, Max): 2.03 to 6.01 h | Tmax ([5]; 384 mg, read-out: CSF Tmax Median): 5 h | Tmax ([5]; 384 mg, read-out: CSF Tmax Min, Max): 2.5 to 8.01 h | ratio of concentration in CSF to IC50 of c-Abl inhibition ([5]; therapeutically effective amount): not less than 1
